# Data taken from patent US6914045B2, “Glycopeptide antibiotics” (Wyeth Holdings Corporation, priority 2001, dated 2005).
# Tests used:
# Test in all cases: in vitro antibacterial evaluation, MIC by broth dilution
# Type in all cases: cell-based
# Staphylococcus sp. = conditions: broth dilution, 18 hours at 35° C.; for MIC Staphylococcus aureus (ATCC 29213): strain ATCC 29213; for MIC Staphylococcus aureus (GC 1131): strain GC 1131; for MIC Staphylococcus aureus (GC 3051): strain GC 3051; for MIC Staphylococcus aureus (GC 3053): strain GC 3053; for MIC Staphylococcus aureus (GC 4541): strain GC 4541; for MIC Staphylococcus aureus (GC 4542): strain GC 4542; for MIC Staphylococcus aureus-SMITH (GC 4543): strain GC 4543; for MIC Staphylococcus aureus (GC 4544): strain GC 4544; for MIC Staphylococcus aureus (GC 4545): strain GC 4545; for MIC Staphylococcus haemolyticus (GC 4546): strain GC 4546; for MIC Coagulase Negative Staphylococcus (GC 4547): strain GC 4547; for MIC Coagulase Negative Staphylococcus (GC 4548): strain GC 4548; for MIC Coagulase Negative Staphylococcus (GC 4549): strain GC 4549; for MIC Coagulase Negative Staphylococcus (GC 4551): strain GC 4551; for MIC Coagulase Negative Staphylococcus (GC 6257): strain GC 6257
# Description: (§1) Methods for in vitro Antibacterial Evaluation (Table 1)
# (§2) The minimum inhibitory concentration (MIC), the lowest concentration of the antibiotic which inhibits growth of the test organism, is determined by the broth dilution method using Muller-Hinton II […] (Baltimore Biological Laboratories) following the recommendations of the National Committee for Clinical Laboratory Standards [Methods for dilution antimicrobial susceptibility tests for bacteria that grow aerobically, approved standard M7-A2, National Committee for Clinical Laboratory Standards, Villanova, Pa.].
# (§3) An inoculum level of 5×10^5 CFU/mL, and a range of antibiotic concentrations (64-0.06 μg/mL) is used. […] The test organisms include a spectrum of Gram-positive bacteria comprised of Staphylococcus sp., Streptococcus sp. and Enterococcus sp. These organisms include recent clinical isolates that are resistant to methicillin, penicillin and/or vancomycin.
# Streptococcus sp. = conditions: broth dilution, 18 hours at 35° C.
# Description: as §1, §2, §3
# Enterococcus sp. = conditions: broth dilution, 18 hours at 35° C.
# Description: as §1, §2, §3
# Escherichia coli = conditions: 18 hours at 35° C.
compound,measurement,setting,value
CC(C)CC(=O)OC1C(O)C(OC2C(CO)OC(Oc3ccc(CC4NC(=O)C(C(C)c5ccccc5)NC(=O)CNC(=O)C(CO)NC(=O)C(C(O)C5CNC(=N)N5C5OC(CO)C(O)C(O)C5O)NC(=O)C(C(O)C5CNC(=N)N5)NC4=O)cc3)C(O)C2O)OC2COC3(OC21)C1CC2CC(C1)CC3C2 (stereo not drawn) [Example 218],MIC Staphylococcus aureus (ATCC 29213),Staphylococcus sp.,4 mg/L
same,MIC Staphylococcus aureus (GC 1131),Staphylococcus sp.,4 mg/L
same,MIC Staphylococcus aureus (GC 3051),Staphylococcus sp.,4 mg/L
same,MIC Staphylococcus aureus (GC 3053),Staphylococcus sp.,4 mg/L
same,MIC Staphylococcus aureus (GC 4541),Staphylococcus sp.,4 mg/L
same,MIC Staphylococcus aureus (GC 4542),Staphylococcus sp.,4 mg/L
same,MIC Staphylococcus aureus-SMITH (GC 4543),Staphylococcus sp.,4 mg/L
same,MIC Staphylococcus aureus (GC 4544),Staphylococcus sp.,4 mg/L
same,MIC Staphylococcus aureus (GC 4545),Staphylococcus sp.,4 mg/L
same,MIC Staphylococcus haemolyticus (GC 4546),Staphylococcus sp.,4 mg/L
same,MIC Coagulase Negative Staphylococcus (GC 4547),Staphylococcus sp.,4 mg/L
same,MIC Coagulase Negative Staphylococcus (GC 4548),Staphylococcus sp.,4 mg/L
same,MIC Coagulase Negative Staphylococcus (GC 4549),Staphylococcus sp.,4 mg/L
same,MIC Coagulase Negative Staphylococcus (GC 4551),Staphylococcus sp.,8 mg/L
same,MIC Coagulase Negative Staphylococcus (GC 6257),Staphylococcus sp.,4 mg/L
same,MIC Streptococcus agalactiae (GC 4564),Streptococcus sp.,0.25 mg/L
same,MIC Streptococcus pneumoniae (ATCC 6301),Streptococcus sp.,0.12 mg/L
same,MIC Streptococcus pneumoniae (GC 1894),Streptococcus sp.,<0.06 mg/L
same,MIC Streptococcus pneumoniae (GC 4565),Streptococcus sp.,0.12 mg/L
same,MIC Streptococcus pyogenes (GC 4563),Streptococcus sp.,0.5 mg/L
same,MIC Streptococcus pneumoniae (ATCC 6301),"Streptococcus sp.; inoculum 5×10^5 CFU/mL, strain ATCC 6301",0.12 mg/L
same,MIC Streptococcus pneumoniae (GC 1894),"Streptococcus sp.; inoculum 5×10^5 CFU/mL, strain GC 1894",<0.06 mg/L
same,MIC Streptococcus pyogenes (GC 4563),"Streptococcus sp.; inoculum 5×10^5 CFU/mL, strain GC 4563",0.5 mg/L
same,MIC Streptococcus agalactiae (GC 4564),"Streptococcus sp.; inoculum 5×10^5 CFU/mL, strain GC 4564",0.25 mg/L
same,MIC Streptococcus pneumoniae (GC 4565),"Streptococcus sp.; inoculum 5×10^5 CFU/mL, strain GC 4565",0.12 mg/L
same,MIC Enterococcus avium (GC 4558),Enterococcus sp.,4 mg/L
same,MIC Enterococcus faecalis (ATCC 29212),Enterococcus sp.,4 mg/L
same,MIC Enterococcus faecalis (GC 2242),Enterococcus sp.,4 mg/L
same,MIC Enterococcus faecalis (GC 2691),Enterococcus sp.,4 mg/L
same,MIC Enterococcus faecalis (GC 3059),Enterococcus sp.,4 mg/L
same,MIC Enterococcus faecalis (GC 4552),Enterococcus sp.,4 mg/L
same,MIC Enterococcus faecalis (GC 4553),Enterococcus sp.,4 mg/L
same,MIC Enterococcus faecalis (GC 4554),Enterococcus sp.,4 mg/L
same,MIC Enterococcus faecalis (GC 6189),Enterococcus sp.,4 mg/L
same,MIC Enterococcus faecium (GC 2243),Enterococcus sp.,4 mg/L
same,MIC Enterococcus faecium (GC 4556),Enterococcus sp.,4 mg/L
same,MIC Enterococcus faecium (GC 4557),Enterococcus sp.,4 mg/L
same,MIC Enterococcus faecalis (ATCC 29212),"Enterococcus sp.; inoculum 5×10^5 CFU/mL, strain ATCC 29212",4 mg/L
same,MIC Enterococcus faecalis (GC 2242),"Enterococcus sp.; inoculum 5×10^5 CFU/mL, strain GC 2242",4 mg/L
same,MIC Enterococcus faecium (GC 2243),"Enterococcus sp.; inoculum 5×10^5 CFU/mL, strain GC 2243",4 mg/L
same,MIC Enterococcus faecalis (GC 2691),"Enterococcus sp.; inoculum 5×10^5 CFU/mL, strain GC 2691",4 mg/L
same,MIC Enterococcus faecalis (GC 3059),"Enterococcus sp.; inoculum 5×10^5 CFU/mL, strain GC 3059",4 mg/L
same,MIC Enterococcus faecalis (GC 4552),"Enterococcus sp.; inoculum 5×10^5 CFU/mL, strain GC 4552",4 mg/L
same,MIC Enterococcus faecalis (GC 4553),"Enterococcus sp.; inoculum 5×10^5 CFU/mL, strain GC 4553",4 mg/L
same,MIC Enterococcus faecalis (GC 4554),"Enterococcus sp.; inoculum 5×10^5 CFU/mL, strain GC 4554",4 mg/L
same,MIC Enterococcus faecium (GC 4556),"Enterococcus sp.; inoculum 5×10^5 CFU/mL, strain GC 4556",4 mg/L
same,MIC Enterococcus faecium (GC 4557),"Enterococcus sp.; inoculum 5×10^5 CFU/mL, strain GC 4557",4 mg/L
same,MIC Enterococcus avium (GC 4558),"Enterococcus sp.; inoculum 5×10^5 CFU/mL, strain GC 4558",4 mg/L
same,MIC Enterococcus faecalis (GC 6189),"Enterococcus sp.; inoculum 5×10^5 CFU/mL, strain GC 6189",4 mg/L
same,MIC Escherichia coli (ATCC 25922),Escherichia coli,64 mg/L
same,MIC Escherichia coli (GC 4559),Escherichia coli,>64 mg/L
same,MIC Escherichia coli (GC 4560),Escherichia coli,8 mg/L
"CC(c1ccccc1)C1NC(=O)CNC(=O)C(CO)NC(=O)C(C(O)C2CNC(=N)N2C2OC(CO)C(O)C(O)C2O)NC(=O)C(C(O)C2CNC(=N)N2)NC(=O)C(Cc2ccc3oc(-c4ccc(C(=O)O)cc4)nc3c2)NC1=O (stereo not drawn) [Example 25, Cyclo[3-[2-(4-carboxyphenyl)-1,3-benzoxazol-5-yl]alanyl-3-(2-iminoimidazolidin-4-yl)seryl-3-(3-hexopyranosyl-2-iminoimidazolidin-4-yl)serylserylglycyl-β-methylphenylalanyl]]",MIC Staphylococcus aureus (ATCC 29213),Staphylococcus sp.,>128 mg/L
same,MIC Staphylococcus aureus (GC 1131),Staphylococcus sp.,>128 mg/L
same,MIC Staphylococcus aureus (GC 3051),Staphylococcus sp.,>128 mg/L
same,MIC Staphylococcus aureus (GC 3053),Staphylococcus sp.,>128 mg/L
same,MIC Staphylococcus aureus (GC 4541),Staphylococcus sp.,>128 mg/L
same,MIC Staphylococcus aureus (GC 4542),Staphylococcus sp.,>128 mg/L
same,MIC Staphylococcus aureus-SMITH (GC 4543),Staphylococcus sp.,>128 mg/L
same,MIC Staphylococcus aureus (GC 4544),Staphylococcus sp.,>128 mg/L
same,MIC Staphylococcus aureus (GC 4545),Staphylococcus sp.,>128 mg/L
same,MIC Staphylococcus haemolyticus (GC 4546),Staphylococcus sp.,>128 mg/L
same,MIC Coagulase Negative Staphylococcus (GC 4547),Staphylococcus sp.,>128 mg/L
same,MIC Coagulase Negative Staphylococcus (GC 4548),Staphylococcus sp.,>128 mg/L
same,MIC Coagulase Negative Staphylococcus (GC 4549),Staphylococcus sp.,>128 mg/L
same,MIC Coagulase Negative Staphylococcus (GC 4551),Staphylococcus sp.,>128 mg/L
same,MIC Coagulase Negative Staphylococcus (GC 6257),Staphylococcus sp.,>128 mg/L
same,MIC Streptococcus pneumoniae (ATCC 6301),Streptococcus sp.; strain ATCC 6301,>128 mg/L
same,MIC Streptococcus pneumoniae (GC 1894),Streptococcus sp.; strain GC 1894,128 mg/L
same,MIC Streptococcus pyogenes (GC 4563),Streptococcus sp.; strain GC 4563,>128 mg/L
same,MIC Streptococcus agalactiae (GC 4564),Streptococcus sp.; strain GC 4564,>128 mg/L
same,MIC Streptococcus pneumoniae (GC 4565),Streptococcus sp.; strain GC 4565,>128 mg/L
same,MIC Enterococcus faecalis (ATCC 29212),Enterococcus sp.; strain ATCC 29212,>128 mg/L
same,MIC Enterococcus faecalis (GC 2242),Enterococcus sp.; strain GC 2242,>128 mg/L
same,MIC Enterococcus faecium (GC 2243),Enterococcus sp.; strain GC 2243,>128 mg/L
same,MIC Enterococcus faecalis (GC 2691),Enterococcus sp.; strain GC 2691,>128 mg/L
same,MIC Enterococcus faecalis (GC 3059),Enterococcus sp.; strain GC 3059,>128 mg/L
same,MIC Enterococcus faecalis (GC 4552),Enterococcus sp.; strain GC 4552,>128 mg/L
same,MIC Enterococcus faecalis (GC 4553),Enterococcus sp.; strain GC 4553,>128 mg/L
same,MIC Enterococcus faecalis (GC 4554),Enterococcus sp.; strain GC 4554,>128 mg/L
same,MIC Enterococcus faecium (GC 4556),Enterococcus sp.; strain GC 4556,>128 mg/L
same,MIC Enterococcus faecium (GC 4557),Enterococcus sp.; strain GC 4557,128 mg/L
same,MIC Enterococcus avium (GC 4558),Enterococcus sp.; strain GC 4558,128 mg/L
same,MIC Enterococcus faecalis (GC 6189),Enterococcus sp.; strain GC 6189,>128 mg/L
same,MIC Escherichia coli (ATCC 25922),"Escherichia coli; strain ATCC 25922, broth dilution",>128 mg/L
same,MIC Escherichia coli (GC 4559),"Escherichia coli; strain GC 4559, broth dilution",>128 mg/L
same,MIC Escherichia coli (GC 4560),"Escherichia coli; strain GC 4560, broth dilution",>128 mg/L
